Structures are written as SMILES.

The text below walks through data of a melting point compilation (Tetko et al.).

Usually melting point stands for the temperature, or range, at which the solid turns liquid. For the molecule `O=C1/C(=C/c2ccc([N+](=O)[O-])cc2)SC(=S)N1CN1CCOCC1`, the melting point came out at 169 °C.

Molecule `CCC1CCCCN1C(=O)COC(=O)c1ccccc1` (centres undefined) returned a melting point of 54.5 °C.

Take `CCC(O)C(C)(C)C` (centres undefined): the melting point was -1.67 °C. As to `O=S(=O)(Cl)c1ccc(S(=O)(=O)N2CCOCC2)cc1`, the melting point lay in the range of 150 to 152 °C.

In the case of `CC(=O)Cc1ccccc1C(=O)OCC(=O)N(C)CCO`, the melting point was found to be 70.5 °C. For `O=S(=O)(Oc1ccccc1)c1ccccc1C=Cc1ccccc1S(=O)(=O)Oc1ccccc1`, the melting point was found to be 180 °C.

For `CC1=NNC(=O)C1(Br)Br`, the melting point was 131 °C. Take `O=[N+]([O-])/C(=C/c1ccccc1[N+](=O)[O-])c1ccccc1`: the melting point stood at 107 °C. Regarding `CC(C)SC1OC(CO)C(O)C(O)C1O` (centres undefined), the melting point is 121 °C. Then `Cc1cc2cc([N+](=O)[O-])ccc2[nH]1`, with 173 to 178 °C; and `Cc1cc(Br)cnc1N`, with 92 to 94 °C; and `CC(=O)Nc1ccc(S(=O)(=O)Cl)cc1`, with 149 °C. `O=C(O)[C@H]1NCC[C@@H]1c1ccccc1` had a melting point of 234 to 236 °C.

`N#Cc1ccc(CN2CCOCC2)cc1` showed a melting point of 86 to 87 °C. On to `CC(C)(C(=O)O)C(F)(F)F`, for which the melting point stood at 70 °C. Then `CCCOC(=O)C1=C(C)NC(=O)NC1c1cccc(OC)c1OC` (centres undefined), with 163 °C; and `CSc1ccc(O)cc1C`, with 56 °C; and `OC1OCC(OCc2ccccc2)C(OCc2ccccc2)C1OCc1ccccc1` (centres undefined), with 78 °C. Turning to `ClC1=CC(c2ccccc2)c2ccccc21` (centres undefined), the melting point came out at 81 °C. To `Cc1cc(I)ccc1N` belongs 86 °C; to `O=c1cc(C(F)(F)F)n2nc(-c3ccc(Cl)cc3)cc2[nH]1`, 155 °C. Regarding `NC(=S)c1ccc2c(c1)OCCO2`, the melting point was 140 to 144 °C. For `c1ccc(CC2CCNCC2)cc1`, the melting point was found to be 16.8 °C. Molecule `Cc1ccc(C)c(CC(=O)O)c1` came in with a melting point of 128 to 132 °C.

For `C[Si]1(C)O[Si](C)(C)O[Si](C)(C)O[Si](C)(C)O[Si](C)(C)O[Si](C)(C)O[Si](C)(C)O[Si](C)(C)O1`, the melting point stood at 31.5 °C. Take `C[Si](C)(C)O[Si](C)(C)O[Si](C)(C)O[Si](C)(C)C`: the melting point is -68 °C.

For the molecule `ClC(Cl)c1ccc(C(Cl)Cl)cc1`, the melting point fell in the range of 92 to 93 °C. The molecule `N#CC(C#N)=NNc1cc(Cl)cc(Cl)c1` displayed a melting point of 192 to 194 °C.

On to `NC(CS(=O)(=O)c1ccc(F)cc1)=NO`, for which the melting point is 180 to 183 °C.

Molecule `COC(=O)C#Cc1cccc(C#CC(=O)OC)c1` showed a melting point of 93 °C. `COc1ccc(/C=N/c2ccc(-c3ccc(/N=N/c4ccccc4)cc3)cc2)cc1` had a melting point of 214 to 215 °C. `O=C1C=CC(=O)C1` yielded a melting point of 37 °C. With `O=C(O)CS(=O)(=O)c1ccccc1`, the melting point lay in the range of 112 to 114 °C. Then `O=C(O)C1CCN(c2ccc(C(F)(F)F)cn2)CC1`, with 162 to 164 °C.

As to `C[Si](C)(C)Nc1ncnc2c1ncn2[Si](C)(C)C`, the melting point stood at 86 °C. To `CCOC(=O)CCc1ccc(O)cc1` belongs 40 to 42 °C; to `Nc1nc(S)nc2[nH]ncc12`, 300 °C; to `O=C=NCCCCCCN=C=O`, -67 °C. In turn, `Cn1c(=O)c(C2=NNC(=O)C2=CNc2ccccc2)c(O)c2ccccc21` returned a melting point of 272 °C. Molecule `CCC#CCCCCC(=O)O` registered a melting point of 14 °C. With `S=C(Nc1ccccc1)C(=S)Nc1ccccc1`, the melting point fell in the range of 134 to 135 °C. `Fc1cccc(Br)n1` gave a melting point of 32 °C. `C#CC(=C)C`: the melting point was -113 °C. `C[C@H](CC=C(c1ccccc1)c1ccccc1)[C@H]1CC[C@H]2[C@@H]3C(O)CC4CC(O)CC[C@]4(C)[C@H]3CC(O)[C@]12C` (some centres undefined) came in with a melting point of 220 °C.

Molecule `CC(=O)c1[nH]c(C)cc1C` returned a melting point of 118 to 121 °C. Take `Clc1ccc2nonc2c1`: the melting point is 37 to 40 °C. For the molecule `COc1c(C(=O)O)csc1Cl`, the melting point is 140 °C.

In turn, `O=[N+]([O-])c1ccc(CCO)cc1` showed a melting point of 63 °C. `O=C(Nc1ccc(Cl)cc1C(O)c1ccccc1)c1ccncc1` (centres undefined) gave a melting point of 211 °C. Then `CCOC(=O)Nc1ccc(C)cc1[N+](=O)[O-]`, with 64 to 65 °C; and `O=C1C(Br)C2c3ccccc3C(C1Br)C(Br)C(=O)C2Br` (centres undefined), with 80 °C; and `O=[N+]([O-])c1cc([N+](=O)[O-])c(/C=C/c2ccccc2)cc1/C=C/c1ccccc1`, with 193 °C. The molecule `CC(=O)OC1COC(C#N)C(OC(C)=O)C1OC(C)=O` (centres undefined) gave a melting point of 132 to 135 °C. For the molecule `CC1(C)C2CCC1(C)C(NC(=O)c1ccc([N+](=O)[O-])cc1)C2NC(=O)c1ccc([N+](=O)[O-])cc1` (centres undefined), the melting point amounted to 170 °C. As for `COc1cc(Br)c(CO)cc1OC`, the melting point was 95 to 100 °C. Then `Cn1ncc(Br)c1C=O`, with 70 °C; and `C#CCCCCCCCCC(=O)O`, with 42 °C; and `Oc1ccc(Cl)cc1Sc1cc(Cl)ccc1O`, with 174 °C. In turn, `CCOC(=O)C(C#N)=C(N)c1cc2cc(Br)cc(Br)c2oc1=O` returned a melting point of 258 to 260 °C. Then `CCOC(=O)c1cc(C)n(C)n1`, with 87 °C; and `Cc1ccc(P(=S)(c2ccc(C)cc2)c2ccc(C)cc2)cc1`, with 185 to 186 °C.

`FC(F)(F)C(F)(F)Cl`: the melting point was -99.4 °C.

On to `COc1ccc(C=CC(=O)c2ccc(F)cc2)c(OC)c1`, for which the melting point fell in the range of 117 to 122 °C. For the molecule `COc1cc(C=C(S)C(=O)O)ccc1O`, the melting point was found to be 161 °C. Then `Nc1cc(CO)ccn1`, with 83 °C; and `O=C1NN=C(C(F)(F)F)C1=NNc1cccc([N+](=O)[O-])c1`, with 254 °C. In turn, `CC(C)NCC(O)c1ccc(O)c(O)c1` (centres undefined) showed a melting point of 170 °C.

In turn, `O=c1ccc2ccc(O)c(O)c2o1` yielded a melting point of 262 °C.

For `O=[N+]([O-])c1ccc2[nH]c3c(c2c1)CCN(Cc1ccccc1)C3`, the melting point is 213 to 214 °C.

`O=C(O)c1ccnc(C(=O)O)c1C(=O)O`: the melting point was found to be 250 °C. `S=C=Nc1ccc(Oc2ccccc2)nc1` registered a melting point of 41 to 42 °C. As to `FC(F)(F)c1cc(N=C=S)ccc1Cl`, the melting point is 34 to 36 °C. To `CCOC(=O)C=Cc1c[nH]c2ccccc12` belongs 120 °C; to `O=C(OCC1OC(Oc2ccccc2CO)C(O)C(O)C1O)c1ccccc1` (centres undefined), 180 °C; to `c1ccc(OCc2nnc3n2NC(c2ccco2)S3)cc1` (centres undefined), 102 °C. As for `CCCCCCCCCCCCCCCCCC(=O)OCCC`, the melting point amounted to 28.9 °C. Then `Cc1nn(C(=O)c2ccncc2)c2c1nnc1ccc(Cl)cc12`, with 162 °C.

For the molecule `O=[N+]([O-])c1ccc(C=NO)o1`, the melting point was determined as 163 °C. Molecule `COC(=O)c1ccc2c(c1)CC1(CCC(c3ccc(C(C)(C)C)cc3)CC1)C2` (centres undefined) yielded a melting point of 118 °C.

As to `CCC(C)Nc1c([N+](=O)[O-])cc(C(C)(C)C)cc1[N+](=O)[O-]` (centres undefined), the melting point is 60 °C. For `O=[N+]([O-])c1ccc(-c2nnc3n2NC(c2ccc(Cl)cc2)S3)cc1` (centres undefined), the melting point turned out to be 220 °C. On to `Nc1cnccc1C(F)(F)F`, for which the melting point was in the range of 55 to 56 °C.

As to `Cc1ccc(/C=C(\C#N)c2nc(-c3ccccc3)cs2)cc1`, the melting point was in the range of 78 to 80 °C.

Turning to `Nc1c(Br)cc(Br)c(Cl)c1Cl`, the melting point turned out to be 98 °C.

Take `CCOC(=O)CNc1ccc(I)cc1`: the melting point lay within 84 to 86 °C. Consider `CNC(c1ccccc1)C(NC)c1ccccc1` (centres undefined), for which the melting point fell in the range of 48 to 51 °C. Turning to `CCOC(=O)CSc1sc(C(=O)OCC)c(N)c1C#N`, the melting point turned out to be 141 °C. `COC1=CC(=O)CC(C)C12Oc1c(Cl)c(OC)cc(OC)c1C2=O` (centres undefined) gave a melting point of 219 °C. Molecule `O=c1oc2ccccc2c(O)c1C(CC(O)c1ccc(-c2ccc(Br)cc2)cc1)c1ccccc1` (centres undefined) returned a melting point of 199 °C. `O=C1c2ccccc2C(=O)c2c(O)cccc21`: the melting point amounted to 194 °C. With `O=[N+]([O-])c1cc(F)c(F)cc1F`, the melting point was -11 °C.

The molecule `O=[N+]([O-])c1cc(S(=O)(=O)Cl)sc1Cl` returned a melting point of 53 °C. The molecule `N#Cc1ccc(Cl)c(C(F)(F)F)c1` came in with a melting point of 66 °C.

In turn, `Clc1ncccc1-c1ccc(Br)nc1` displayed a melting point of 161 °C. In turn, `CN1CCN(Cc2ccc(CO)cc2)CC1` had a melting point of 96 to 98 °C. The molecule `COC(=O)c1cc(Br)cc(Br)c1` registered a melting point of 63 °C. In turn, `O=C(O)CCCCc1ccc(O)cc1` registered a melting point of 118 °C. Molecule `O=C1/C(=N\Nc2cccc([N+](=O)[O-])c2)C(C(F)(F)F)=NN1c1ccccc1` had a melting point of 150 °C. Regarding `CC(C#N)CCC#N` (centres undefined), the melting point was -45 °C. `CC1CCCC(C)N1C(=O)COC(=O)c1ccccc1` (centres undefined): the melting point is 118 °C. Then `O=C(C1=NOC2C(=O)N(c3ccc(Br)cc3)C(=O)C12)c1ccco1` (centres undefined), with 176 °C; and `NC(=S)CS(=O)(=O)Cc1ccco1`, with 128 to 130 °C. `Cc1ccc2nc(C)cc(C)c2c1`: the melting point came out at 68 °C. For `CCCCCCCOC(=O)CCCCCCC`, the melting point was -10.6 °C. Then `O=C1Cc2cc3c(cc21)CC3=O`, with 237 °C. Molecule `Cc1ccc(C#N)cn1` yielded a melting point of 85 °C. For `O=C(NN=Cc1ccc([N+](=O)[O-])o1)c1ccc(O)cc1`, the melting point was found to be 298 °C. Take `CC(=O)N1CCCC(C)C1` (centres undefined): the melting point was -13.6 °C. Regarding `O=C(O)c1cccc2c1OCC2`, the melting point was 170 to 171 °C.
